Data on four molecules can be found in patent publication US20150025012A1, “METHODS AND COMPOSITIONS FOR IDENTIFICATION, ASSESSMENT AND TREATMENT OF CANCERS ASSOCIATED WITH HEDGEHOG SIGNALING” (Infinity Pharmaceuticals, Inc., priority 2010, published 2015).

Where a name gives a salt, the structure may show the parent alone.

Experiment [1] relates to hedgehog pathway. The experiment is described as follows: C3H10T1/2 alkaline phosphatase assay (Shh-dependent osteoblast differentiation). To be noted: Mus musculus, C3H 10T1/2; HCl salt; sonic hedgehog 250 ng/ml; AP activity normalized against total protein; read-out: IC50 (antagonist of the hedgehog pathway). Format: cell-based. From the text:
An exemplary assay to evaluate the activity of a hedgehog inhibitor is as follows. C3H10T1/2 cells differentiate into osteoblasts when contacted with the sonic hedgehog peptide (Shh-N). Upon differentiation, these osteoblasts produce high levels of alkaline phosphatase (AP) which can be measured in an enzymatic assay (Nakamura et al., 1997 BBRC 237: 465). Compounds that block the differentiation of C3H10T1/2 into osteoblasts (a Shh dependent event) can therefore be identified by a reduction in AP production (van der Horst et al., 2003 Bone 33: 899). The assay details are described below. Additional assays to ascertained the activity of hedgehog inhibitors, including IPI-926, are described in US 2009/0181997 by Grayzel et al., U.S. Ser. No. 61/327,373 and 61/331,365, filed on Apr. 23, 2010 and May 4, 2010, respectively; the entire contents of the aforesaid applications are incorporated herein by reference. […]
C3H10T1/2 cells were plated in 96 wells with a density of 8×10^3 cells/well. […] After incubating for 30 min at 37° C., the plates were read on an Envision plate reader at 405 nm. Total protein was quantified with a BCA protein assay kit from Pierce according to manufacturer's instructions. […]

Experiment [2] has as its system human SHh expression. The experiment is described as follows: Hedgehog ligand expression in bladder cancer cells after chemotherapy. In kind it is cell-based. To be noted: 24, 48, 72 hours, highest after 144 hours.
Experiment [3] has as its system Bx-PC3 tumors. The experiment is described as follows: Growth of Bx-PC3 tumors in mice. Format: in vivo. To be noted: single agents and combination. The source says: Bevacizumab, a monoclonal antibody, exerts its activity by neutralizing VEGF, a factor important of the proliferation and survival of endothelial cells. […] In the same study, the relative effect of these agents was explored by measuring the mRNA expression of PECAM-1, a marker of endothelial cells and RGS5, a marker of pericytes. […] The role of the vasculature and its supporting pericyte population in the mechanism of action of IPI-926 continues to be explored.
For in vivo studies, tumors were grown in male NCR-nu/nu mice by subcutaneous injection of 5×10^6 cells. Tumor growth was monitored using calipers. When tumors reached an approximate size of 200 mm^3, tumor bearing animals were randomized into treatment arms and administered agents or vehicles as described.

A word on the IC50: it is the concentration that gives 50% inhibition.

Take `CC1=C2C[C@H]3[C@@H](CC[C@@H]4C[C@H](NS(C)(=O)=O)CC[C@@]43C)[C@@H]2CC[C@@]2(C1)O[C@@H]1C[C@H](C)CN[C@H]1[C@H]2C` [IPI-926 (HCl salt)]: the IC50 in experiment [1] is less than 20 nM.

On to `COc1cccc2c1C(=O)c1c(O)c3c(c(O)c1C2=O)C[C@@](O)(C(=O)CO)C[C@@H]3O[C@H]1C[C@H](N)[C@H](O)[C@H](C)O1` [doxorubicin], for which, in experiment [2], the “human SHh expression” value is on record as “increase”. On the same count and under the same terms, under `Nc1ccn([C@@H]2O[C@H](CO)[C@@H](O)C2(F)F)c(=O)n1` [gemcitabine] stands “increase”. Turning to “Bevacizumab: a monoclonal antibody, exerts its activity by neutralizing VEGF”, the “activity on the growth of Bx-PC3 tumors” value in experiment [3] was “approximately the same single agent activity”.
